Measurements from US6939716B2, “Method for detecting conditions indicative of sepsis” (Washington University, priority 2001, dated 2005).
“Also recorded” adds a separate entry of the source.

T1: eosinophil peroxidase (Sus scrofa, UniProt P80550)
T1 construct: purchased ExOxEmis (Little Rock, Ark.)
T1 sequence (P80550 143-704): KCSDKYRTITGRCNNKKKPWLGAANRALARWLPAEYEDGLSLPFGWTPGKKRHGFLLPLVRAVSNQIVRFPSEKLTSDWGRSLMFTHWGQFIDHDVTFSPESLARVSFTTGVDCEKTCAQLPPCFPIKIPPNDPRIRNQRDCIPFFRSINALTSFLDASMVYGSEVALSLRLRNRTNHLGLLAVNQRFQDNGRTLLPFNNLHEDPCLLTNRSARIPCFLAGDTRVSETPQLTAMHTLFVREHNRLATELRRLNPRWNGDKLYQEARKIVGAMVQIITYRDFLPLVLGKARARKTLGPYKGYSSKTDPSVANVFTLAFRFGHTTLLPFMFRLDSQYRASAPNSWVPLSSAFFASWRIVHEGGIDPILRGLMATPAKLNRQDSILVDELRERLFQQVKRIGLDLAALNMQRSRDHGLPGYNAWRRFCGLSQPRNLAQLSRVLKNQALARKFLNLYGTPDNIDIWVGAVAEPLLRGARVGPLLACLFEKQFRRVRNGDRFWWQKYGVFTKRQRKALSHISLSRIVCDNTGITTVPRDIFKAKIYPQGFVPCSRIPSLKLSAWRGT

T2: myeloperoxidase (Homo sapiens, UniProt P05164)
T2 construct: endogenous in cells; host or cells: HL60 cells (endogenous enzyme, purified in house)
T2 sequence (P05164 49-745): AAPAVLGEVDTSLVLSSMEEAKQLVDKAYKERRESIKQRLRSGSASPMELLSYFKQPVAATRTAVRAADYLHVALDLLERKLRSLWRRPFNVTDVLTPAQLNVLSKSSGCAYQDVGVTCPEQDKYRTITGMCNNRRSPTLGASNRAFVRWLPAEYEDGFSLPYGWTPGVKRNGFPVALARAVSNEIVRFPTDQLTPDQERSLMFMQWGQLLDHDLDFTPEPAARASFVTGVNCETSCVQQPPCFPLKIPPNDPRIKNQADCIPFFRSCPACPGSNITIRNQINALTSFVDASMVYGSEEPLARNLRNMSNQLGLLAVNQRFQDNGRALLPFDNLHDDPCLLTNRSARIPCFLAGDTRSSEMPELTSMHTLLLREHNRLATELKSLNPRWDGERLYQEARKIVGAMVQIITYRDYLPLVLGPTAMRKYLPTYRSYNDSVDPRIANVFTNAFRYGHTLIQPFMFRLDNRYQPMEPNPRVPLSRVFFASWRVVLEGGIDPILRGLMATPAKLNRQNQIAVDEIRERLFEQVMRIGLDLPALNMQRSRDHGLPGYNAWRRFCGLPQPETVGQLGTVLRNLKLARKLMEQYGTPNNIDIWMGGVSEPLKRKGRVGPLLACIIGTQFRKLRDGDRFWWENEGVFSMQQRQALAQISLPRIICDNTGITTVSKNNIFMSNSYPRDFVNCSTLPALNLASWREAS

B1: catalase: a peroxide scavenger (protein, UniProt P04040 2-527, looked up)
Catalase: ADSRDPASDQMQHWKEQRAAQKADVLTTGAGNPVGDKLNVITVGPRGPLLVQDVVFTDEMAHFDRERIPERVVHAKGAGAFGYFEVTHDITKYSKAKVFEHIGKKTPIAVRFSTVAGESGSADTVRDPRGFAVKFYTEDGNWDLVGNNTPIFFIRDPILFPSFIHSQKRNPQTHLKDPDMVWDFWSLRPESLHQVSFLFSDRGIPDGHRHMNGYGSHTFKLVNANGEAVYCKFHYKTDQGIKNLSVEDAARLSQEDPDYGIRDLFNAIATGKYPSWTFYIQVMTFNQAETFPFNPFDLTKVWPHKDYPLIPVGKLVLNRNPVNYFAEVEQIAFDPSNMPPGIEASPDKMLQGRLFAYPDTHRHRLGPNYLHIPVNCPYRARVANYQRDGPMCMQDNQGGAPNYYPNSFGAPEQQPSALEHSIQYSGEVRRFNTANDDNVTQVRAFYVNVLNEEQRKRLCENIAGHLKDAQIFIQKKAVKNFTEVHPDYGSHIQALLDKYNAEKPKNAIHTFVQSGSHLAAREKANL

Legend:
[1] = test system: Klebsiella pneumoniae; test: Bacterial killing by myeloperoxidase; type: cell-based
Procedure: Bacterial killing. The bactericidal activity of myeloperoxidase was quantified by conventional procedures as described previously (ref. 27). Briefly, Klebsiella pneumoniae were cultured in Luria-Bertani broth to mid-log growth phase, washed with PBS, and used at 10^9 bacteria/mL. Bacteria were incubated with 5 nM enzyme, 5 nM H2O2, and 100 mM NaCl in PBS (pH 5.5) for 15 min at 37° C. Serial dilutions were immediately spread on agar plates and the colony forming units determined after overnight incubation at 37° C.

[2] = Generation of N-acetyl-L-3-bromotyrosine by the HOCl-Cl^−-Br^− system (reverse-phase HPLC)
Procedure: Reaction conditions. Reactions were carried out for 60 min at 37° C. in buffer A (100 mM NaCl, 50 mM sodium phosphate, 100 μM diethylenetriaminepentaacetic acid (DTPA)) supplemented with 1 mM N-acetyl-L-tyrosine and either 50 μM hypohalous acid or 3 nM peroxidase and 50 μM H2O2. Buffer A was passed over a Chelex resin column prior to use to remove redox active transition metal ions. Reactions were initiated by the addition of oxidant and terminated with 0.1 mM methionine. Reverse-phase HPLC analyses of halogenated amino acids. Analyses were performed using a flow rate of 1 mL/min and an Ultrasphere ODS reverse-phase column (4.6 mm×25 cm; 5 μm; Beckman Instruments; Berkeley, Calif.) coupled to a Waters 484 Tunable Absorbance Detector with monitoring at 275 nm. Solvent A was 0.1% trifluoroacetic acid (TFA, pH 2.5), and solvent B was 0.1% TFA in methanol (pH 2.5). The gradient profile was: isocratic elution at 66:34 (v/v) A:B over 2.1 min; linear increase of B from 34% to 40% over 30 min; isocratic elution at 60:40 A:B for 3 min; increase of B from 40% to 100% over 2 min; and isocratic elution at 100% B for 3 min. Products were quantified using integrated peak areas by comparison to standard curves of authentic N-Ac-chlorotyrosine and N-Ac-bromotyrosine.

[3] = target: T1, eosinophil peroxidase; test: Generation of N-acetyl-L-3-bromotyrosine by the eosinophil peroxidase-H2O2-Cl^−-Br^− system (reverse-phase HPLC); type: biochemical, Porcine
Procedure: General procedures. Myeloperoxidase was purified from HL60 cells (ref. 19). Enzyme was apparently pure as assessed by its absorption spectrum (A430/A280 ratio>0.8), SDS-PAGE, and peroxidase activity gel electrophoresis (ref. 20). Porcine eosinophil peroxidase (A415/A280>0.9) was from ExOxEmis (Little Rock, Ark.). Chloride-free NaOCl and HOBr were prepared by conventional procedures as described previously (refs. 21,22). Peritoneal white blood cells were elicited with intraperitoneal (i.p.) injection of 4% thioglycollate and harvested 24 h after injection (ref. 23). SDS-PAGE was performed using 10% Bis-Tris NuPAGE gels (Invitrogen; Carlsbad, Calif.). The separated proteins were transferred onto a nitrocellulose membrane, which was blocked overnight at 4° C. with 5% milk and 0.05% Tween-20 in phosphate-buffered saline (PBS; 10 mM phosphate, 138 mM NaCl, 2.7 mM KCl, pH 7.4). […]
Reverse-phase HPLC analyses of halogenated amino acids. Analyses were performed using a flow rate of 1 mL/min and an Ultrasphere ODS reverse-phase column (4.6 mm×25 cm; 5 μm; Beckman Instruments; Berkeley, Calif.) coupled to a Waters 484 Tunable Absorbance Detector with monitoring at 275 nm. […] Products were quantified using integrated peak areas by comparison to standard curves of authentic N-Ac-chlorotyrosine and N-Ac-bromotyrosine.

[4] = target: T2, myeloperoxidase; test: Generation of N-acetyl-L-3-bromotyrosine by the myeloperoxidase-H2O2-Cl^−-Br^− system (reverse-phase HPLC); type: biochemical; settings: for effect on bromination of N-acetyl-L-tyrosine by myeloperoxidase: acidic (pH 5.9) and neutral conditions; for effect on bromination by the myeloperoxidase-H2O2-Cl^−-Br^− system: mildly acidic conditions (pH 5.9)
Procedure: General procedures. Myeloperoxidase was purified from HL60 cells (ref. 19). Enzyme was apparently pure as assessed by its absorption spectrum (A430/A280 ratio>0.8), SDS-PAGE, and peroxidase activity gel electrophoresis (ref. 20). Porcine eosinophil peroxidase (A415/A280>0.9) was from ExOxEmis (Little Rock, Ark.). Chloride-free NaOCl and HOBr were prepared by conventional procedures as described previously (refs. 21,22). Peritoneal white blood cells were elicited with intraperitoneal (i.p.) injection of 4% thioglycollate and harvested 24 h after injection (ref. 23). SDS-PAGE was performed using 10% Bis-Tris NuPAGE gels (Invitrogen; Carlsbad, Calif.). The separated proteins were transferred onto a nitrocellulose membrane, which was blocked overnight at 4° C. with 5% milk and 0.05% Tween-20 in phosphate-buffered saline (PBS; 10 mM phosphate, 138 mM NaCl, 2.7 mM KCl, pH 7.4). The blot was then incubated (1 h) with rabbit anti-mouse myeloperoxidase antibody (1:1,000) followed by goat anti-rabbit immunoglobulin antibody (1:10,000; Santa Cruz Biotechnology; Santa Cruz, Calif.) conjugated with horseradish peroxidase. West Pico chemiluminescent substrate (Pierce; Rockford, Ill.) was added, and the membrane was exposed to autoradiography film and developed.
Reaction conditions. Reactions were carried out for 60 min at 37° C. in buffer A (100 mM NaCl, 50 mM sodium phosphate, 100 μM diethylenetriaminepentaacetic acid (DTPA)) supplemented with 1 mM N-acetyl-L-tyrosine and either 50 μM hypohalous acid or 3 nM peroxidase and 50 μM H2O2. Buffer A was passed over a Chelex resin column prior to use to remove redox active transition metal ions. Reactions were initiated by the addition of oxidant and terminated with 0.1 mM methionine.
Reverse-phase HPLC analyses of halogenated amino acids. Analyses were performed using a flow rate of 1 mL/min and an Ultrasphere ODS reverse-phase column (4.6 mm×25 cm; 5 μm; Beckman Instruments; Berkeley, Calif.) coupled to a Waters 484 Tunable Absorbance Detector with monitoring at 275 nm. Solvent A was 0.1% trifluoroacetic acid (TFA, pH 2.5), and solvent B was 0.1% TFA in methanol (pH 2.5). The gradient profile was: isocratic elution at 66:34 (v/v) A:B over 2.1 min; linear increase of B from 34% to 40% over 30 min; isocratic elution at 60:40 A:B for 3 min; increase of B from 40% to 100% over 2 min; and isocratic elution at 100% B for 3 min. Products were quantified using integrated peak areas by comparison to standard curves of authentic N-Ac-chlorotyrosine and N-Ac-bromotyrosine.

[5] = mildly acidic conditions (pH 5.9)
[6] = neutral conditions (pH 7), taurine 200 μM

Row | Molecule | bacteria killing (dead) ([1]; 1 μM Br added to the complete myeloperoxidase-H2O2-Cl^− system) | effect on bacteria killing ([1]; 10 μM Br^− added to the complete myeloperoxidase-H2O2-Cl^− system) | effect on formation of N-acetyl-L-3-bromotyrosine by the HOCl-Cl^−-Br^− system [2, 5] | effect on formation of N-acetyl-L-3-bromotyrosine by the HOCl-Cl^−-Br^− system [2, 6] | effect on production of N-acetyl-L-3-bromotyrosine by the eosinophil peroxidase-H2O2-Cl^−-Br^− system [3, 5] | effect on N-acetyl-L-3-bromotyrosine formation by the eosinophil peroxidase-H2O2-Cl^−-Br^− system [3, 6] | effect on bromination of N-acetyl-L-tyrosine by myeloperoxidase [4] | effect on bromination by the myeloperoxidase-H2O2-Cl^−-Br^− system [4] | effect on bromination by the myeloperoxidase-H2O2-Cl^−-Br^− system ([4]; listed as Taurine) | effect on N-acetyl-L-3-bromotyrosine formation by the myeloperoxidase-H2O2-Cl^−-Br^− system [4, 6]
1 | Br [Br^−, bromide] | 72% | completely inhibitory | – | – | – | – | – | – | – | –
2 | NCCS(=O)(=O)O [taurine] | – | – | inhibited | completely inhibited | failed to affect | little affect | inhibited | almost completely inhibited | inhibited | only partially inhibited; also recorded: only partly inhibited
3 | B1 | – | – | – | – | – | – | inhibited | – | – | –
